Consider one compound from patent US11872261B2, “Lipoprotein targeting protease inhibitors and uses” (The United States of America, as represented by the …, priority 2016, dated 2024).

Assay [1] in a line: Clinical pilot study: plasma lipids before and after rosuvastatin. It is filed as in vivo, human. Conditions: 28 days vs baseline. The protocol: This Example describes a small clinical pilot study which assessed the impact of statins on lipoprotein-associated proteins in healthy individuals (n=10) with normal LDL-C (<130 mg/dL), who were treated with the statin rosuvastatin (available commercially as Crestor®) (20 mg/day) for 28 days. Proteomic analysis of size-exclusion chromatography isolated LDL, HDL-L (large) and HDL-S (small) fractions and spectral counting was used to compare relative protein detection before and after statin therapy. Significant protein changes were found in each lipoprotein pool and included both increases and decreases in several proteins involved in lipoprotein metabolism, complement regulation, and acute phase response. Fasting blood samples were obtained from ten healthy volunteers participating in a study of the NIH Center for Human Immunology, intended to evaluate effects of a statin on the immune system. This protocol was approved by the institutional review board of the National Heart, Lung, and Blood Institute (NHLBI) and registered at clinicaltrials.gov (NCT01200836); all participants provided written informed consent. Three males and seven females were enrolled, with an average age of 44.1±11 years. Participants were selected to have normal LDL-C (<130 mg/dL) and were not on any lipid modification therapy prior to the study. Recruited participants were given rosuvastatin (20 mg/day) for 28 days. Blood was collected by venipuncture at the following time points: baseline, 14 and 28 days after rosuvastatin treatment, and 14 days after stopping treatment (washout). Samples were stored at -20° C. Because samples were taken from each participant at baseline and on-treatment, each subject acted as their own control. Lipid and lipoprotein assays were performed on a Siemens Dimension Vista analyzer, using standard enzymatic assays. HDL-C was measured by a direct assay (Siemens) and LDL-C was determined by the Friedewald equation. Lipoprotein particle numbers and average particle sizes were determined from heparinized plasma on a […] Clinical Analyzer (LipoScience).

In assay [2] the test system is lipoprotein proteome (LDL, HDL-L, HDL-S). As to the kind of experiment: Lipoprotein proteomics, spectral counting of LDL, HDL-L and HDL-S pools. It is filed as in vivo, human. The settings on record: 28 days vs baseline. The protocol: Collected plasma from each subject at baseline (n=10) and after 28 days of rosuvastatin treatment (n=10) was applied to two Superdex 200 columns (GE Healthcare) arranged in series on an Akta FPLC system. The flow rate was set to 0.5 mL/min and 0.5 mL fractions were collected. Fractions were assayed for phosphatidylcholine, total cholesterol, free cholesterol and triglyceride by enzymatic assays (Wako Diagnostics) to determine position of elution for lipoproteins. For each subject, fractions were combined to make LDL (elution vol. 17.5-20 mL), HDL-large (HDL-L; elution vol. 21-23 mL) and HDL-small (HDL-S; elution vol. 23-25 mL) pools, generating a total of 60 samples for MS analysis.
Pooled FPLC fractions were applied to a phospholipid binding resin and washed to isolate lipid bound protein components, as previously described (Gordon et al., J Proteome Res 9: 5239-5249, 2010). Resin bound proteins were then subjected to overnight trypsin digestion at 37° C. Resulting peptides were collected and then reduced with dithiothreitol (200 mM; 30 min at 37° C.) and carbamidomethylated with iodoacetamide (800 mM; 30 min at 25° C.). Digest solutions were dried, reconstituted in 100 μL of water+0.1% formic acid and desalted using ZipTips (Millipore), and stored at −20° C. until MS analysis.
Desalted samples were dried and reconstituted in 20 μL of water+0.1% formic acid and 10 μL was analyzed on a Thermo Orbitrap Velos Mass Spectrometer instrument. Blank runs were performed between each sample to prevent carry over. Peak lists were generated using Proteome Discoverer (version 1.3.0.339) and resulting spectra were searched against the SwissProt database (version 012214), using Mascot (version 2.4.0) to identify protein components of the lipoprotein fractions (fragment ion mass tolerance of 0.80 Da and a parent ion tolerance of 20 PPM). Search criteria included: human taxonomy, fixed modification: carbamidomethylation (C), variable modifications: oxidation (M), deamidation (N, Q) and up to two missed trypsin cleavage sites were allowed. Validation of peptide and protein identifications was performed using Scaffold software (version 4.1.1) and a 1.0% false discovery rate (FDR) for both peptide and protein thresholds and a minimum of 2 identified peptides were required per protein. Calculated decoy FDR for peptide and protein identifications were 0.03% and 0.7%, respectively. Spectral counting was used as a semi-quantitative comparison of protein abundance between baseline and on-treatment samples using normalized spectrum count calculated by the Scaffold software. Comparisons were only performed to estimate the relative abundance of the same protein in the same lipoprotein pool before and after rosuvastatin treatment; no comparisons were made between lipoprotein fractions. Data was analyzed by student's T-test to identify proteins with statistically significant (p<0.05) changes in normalized spectral counts. Because this MS analysis was intended primarily for screening purposes, to identify candidates for hypothesis driven functional experiments, the data analysis was not corrected for multiple comparisons. All MS data have been deposited to the ProteomeXchange Consortium (Vizcaino et al., Nat Biotechnol 32: 223-226, 2014) via the PRIDE partner repository with the dataset identifier PXD002633.
To test our hypothesis that rosuvastatin alters the lipoprotein proteome, we pooled fractions containing LDL and HDL and used mass spectrometry (MS) to analyze the lipid associated protein content of each of these lipoproteins in each subject at baseline and after 28 days on rosuvastatin. The HDL peak was divided into two halves, representing large and small HDL, to gain additional insight given the proteomic complexity of HDL. […]

On to `CC(C)c1nc(N(C)S(C)(=O)=O)nc(-c2ccc(F)cc2)c1/C=C/[C@@H](O)C[C@@H](O)CC(=O)O` [rosuvastatin], for which the “increase of HDL-C” value in assay [1] (20 mg/day, not statistically significant) amounted to 3.6%. In addition, in assay [1] (20 mg/day, p<0.001), the “change in LDL-C” value was −50%. The change in triglyceride in assay [1] (20 mg/day, p<0.01) is listed as −29%. Moreover, the “change in total cholesterol” value in assay [1] (healthy subjects n=10, 20 mg/day, p<0.001) is reported as −28%. Besides, in assay [2] (LDL fraction), the “change in Ig kappa chain V-II spectral counts” value was “+68%”; the “change in complement C3 spectral counts” value is “+71%”; the “magnitude of reductions in protein spectral counts, LDL fraction” value is on record as −20 to −71%. Further, in assay [2] (large HDL), the “change in Ig lambda like polypeptide 5 spectral counts” value is reported as −12%, the “change in N-acetylmuramoyl-L-alanine amidase spectral counts” value is on record as −69%, the “change in alpha-1-antitrypsin (A1AT) spectral counts” value is listed as “+2438%” and the “change in ceruloplasmin spectral counts” value is on record as “+27%”. Also, in assay [2] (large HDL), the “change in clusterin spectral counts” value is given as −13%, the “change in kallikrein spectral counts” value is −26% and the “increase in A1AT spectral counts associated with large HDL” value amounted to 24 fold. In assay [2] (small HDL fraction), the “change in alpha-1-antichymotrypsin spectral counts” value is recorded as −89%, the “change in apolipoprotein C-III spectral counts” value is given as −13%, the “change in complement C2 spectral counts” value is on record as −44% and the “change in vitronectin spectral counts” value was “+23%”.
